Assay results taken from patent publication EP4028002B1, “AN ANTICANCER COMBINATION OF CHIDAMIDE AND CELECOXIB” (Great Novel Therapeutics Biotech & Medicals Corporation, priority 2019, dated 2021).

Tests used:
[1] = Saturation solubility study in ddH2O; assay type: physicochemical; settings: 25°C, 90 minutes; for Saturation & Solubility: 100 rpm, mean ± SD of triplicates, per batch; for saturation solubility (water solubility): independent batches
Description: Determination of Saturation Solubility of Chidamide-HCl, Chidamide-H2SO4, and Celecoxib-Na Salts. Sample of 5 mg of chidamide-HCl, chidamide-H2SO4, or celecoxib-Na salts was added to 5 ml volumetric flasks containing ddH2O and shook at 100 rpm in an incubator at 25°C for 90 minutes. The resulting suspension was filtered through a 0.22 µm filter. The concentrations of chidamide-HCl, chidamide-H2SO4, and celecoxib-Na salts were determined spectrophotometrically at 256 nm, 256 nm, and 253 nm, respectively. The saturation solubility of each sample was determined in triplicates and the mean value and standard deviation were reported. Preparation of standard curves is described as below.

[2] = low solubility and high permeability; cited from earlier work

Row | Saturation & Solubility [1] | saturation solubility (water solubility) [1] | Structure (SMILES) | BCS (biopharmaceutical classification system) class [2]
1 | BDL | water-insoluble | Cc1ccc(-c2cc(C(F)(F)F)nn2-c2ccc(S(N)(=O)=O)cc2)cc1 [Celecoxib-API, 4-[5-(4-Methylphenyl)-3-(trifluoromethyl)pyrazol-1-yl]benzenesulfonamide] | class II
2 | BDL | water-insoluble | Nc1cc(F)ccc1NC(=O)c1ccc(CNC(=O)/C=C/c2cccnc2)cc1 [Chidamide-API, 4-(((E)-3-(pyridin-3-yl)acrylamido)methyl)-N-(2-amino-4-fluorophenyl)benzamide] | 
